Assay results as given in PubChem BioAssay AID330 (DTP/NCI, 2004).
Values joined by “and” are separate entries in the source; they are usually repeats but may differ in a detail not shown here. Identical values can stand only once. Toxic doses and inconclusive results are not listed. The calls were made as follows: active = survival T/C of 150% or more; inactive = T/C below 125% in these data.

Test system: P388 leukemia ip, CD2F1 mice, survival T/C
Assay: NCI In Vivo Anticancer Drug Screen. Data for tumor model P388 Leukemia (intraperitoneal) in CD2F1 (CDF1) mice
Conditions: endpoint: median survival time, higher = longer survival
In short: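 Mice carrying the transplanted tumor received test compound or vehicle. Survival was recorded in each group, and the value is the treated-group measurement divided by that of the vehicle-treated control group.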

[1] = dose: 50.0 mg/kg/injection, schedule: Q01DX009 (ip), vehicle: saline with Tween-80
[2] = dose: 100.0 mg/kg/injection, schedule: Q01DX009 (ip), vehicle: saline with Tween-80
[3] = dose: 50.0 mg/kg/injection, schedule: Q01DX009 (ip), vehicle: Klucel (hydroxypropylcellulose) (HPC)
[4] = dose: 100.0 mg/kg/injection, schedule: Q01DX009 (ip), vehicle: Klucel (hydroxypropylcellulose) (HPC)
[5] = dose: 200.0 mg/kg/injection, schedule: Q01DX009 (ip), vehicle: Klucel (hydroxypropylcellulose) (HPC)
[6] = dose: 50.0 mg/kg/injection, schedule: Q01DX009 (ip), vehicle: saline
[7] = dose: 100.0 mg/kg/injection, schedule: Q01DX009 (ip), vehicle: saline
[8] = dose: 200.0 mg/kg/injection, schedule: Q01DX009 (ip), vehicle: saline

Measured: T/C

OC[C@@H]1CCCN2CCCC[C@H]12
inactive: dose: 6.2 mg/kg/injection, schedule: Q01DX007 (ip), vehicle: carboxymethylcellulose (CMC) 91 % of control | dose: 12.5 mg/kg/injection, schedule: Q01DX007 (ip), vehicle: carboxymethylcellulose (CMC) 91 % of control | dose: 25.0 mg/kg/injection, schedule: Q01DX007 (ip), vehicle: carboxymethylcellulose (CMC) 91 % of control

CC1(NC(=O)N(CCCl)N=O)CCCC1
inactive: dose: 25.0 mg/kg/injection, schedule: Q01DX009 (ip), vehicle: saline with Tween-80 104 % of control | [1] 104 % of control | dose: 50.0 mg/kg/injection, schedule: Q04DX003 (ip), vehicle: saline with Tween-80 100 % of control | [2] 109 % of control | dose: 100.0 mg/kg/injection, schedule: Q04DX003 (ip), vehicle: saline with Tween-80 100 % of control

Cc1cc(C)c[n+](-c2nc3c([O-])n(C)c(=O)n(C)c-3n2)c1
inactive: dose: 100.0 mg/kg/injection, schedule: Q04DX003 (ip), vehicle: saline 94 % of control | dose: 200.0 mg/kg/injection, schedule: Q04DX003 (ip), vehicle: saline 98 % of control | dose: 400.0 mg/kg/injection, schedule: Q04DX003 (ip), vehicle: saline 103 % of control

CC1(OC(=O)c2ccc(F)cc2)CC(C)(C)[N+]([O-])=N1 (stereo unspecified)
inactive: dose: 12.5 mg/kg/injection, schedule: Q01DX009 (ip), vehicle: other 113 % of control | dose: 25.0 mg/kg/injection, schedule: Q01DX009 (ip), vehicle: other 101 % of control | dose: 50.0 mg/kg/injection, schedule: Q01DX009 (ip), vehicle: other 118 % of control | dose: 100.0 mg/kg/injection, schedule: Q01DX009 (ip), vehicle: other 118 % of control | dose: 200.0 mg/kg/injection, schedule: Q01DX009 (ip), vehicle: other 123 % of control

Nc1cc(-c2ccccc2)nn1-c1nnc(-c2ccccc2)c(-c2ccccc2)n1
inactive: dose: 50.0 mg/kg/injection, schedule: Q01DX005 (ip), vehicle: saline with Tween-80 95 % of control | dose: 100.0 mg/kg/injection, schedule: Q01DX005 (ip), vehicle: saline with Tween-80 100 % of control | dose: 200.0 mg/kg/injection, schedule: Q01DX005 (ip), vehicle: saline with Tween-80 95 % of control

Cc1ccc(Oc2ccc([N+](=O)[O-])c3[nH]c4ccccc4c(=O)c23)cc1
inactive: [1] 94 % of control | [2] 111 % of control | dose: 200.0 mg/kg/injection, schedule: Q01DX009 (ip), vehicle: saline with Tween-80 113 % of control

CN(C)c1ccc(C(c2cc3c(cc2O)OCO3)N2CCCC2)cc1 (stereo unspecified)
inactive: dose: 60.0 mg/kg/injection, schedule: Q01DX005 (ip), vehicle: Klucel (hydroxypropylcellulose) (HPC) 108 % of control | dose: 120.0 mg/kg/injection, schedule: Q01DX005 (ip), vehicle: Klucel (hydroxypropylcellulose) (HPC) 109 % of control | dose: 240.0 mg/kg/injection, schedule: Q01DX005 (ip), vehicle: Klucel (hydroxypropylcellulose) (HPC) 109 % of control

C1CC2(CC3(C1)SCCS3)SCCS2
inactive: [3] 94 % of control | [4] 101 % of control | [5] 101 % of control

CC(=O)c1coc2c(c(C)nn2-c2ccccc2)c1=O
inactive: dose: 7.5 mg/kg/injection, schedule: Q01DX005 (ip), vehicle: Klucel (hydroxypropylcellulose) (HPC) 99 % of control | dose: 15.0 mg/kg/injection, schedule: Q01DX005 (ip), vehicle: Klucel (hydroxypropylcellulose) (HPC) 100 % of control | dose: 30.0 mg/kg/injection, schedule: Q01DX005 (ip), vehicle: Klucel (hydroxypropylcellulose) (HPC) 100 % of control

O=S1(=O)CC(N2CCCCC2)C2=C(O1)c1ccccc1SC2 (stereo unspecified)
inactive: [1] 88 % of control | [2] 92 % of control

O=CN1CCc2cc3c(cc2C1Cc1cc2c(cc1Br)OCO2)OCO3 (stereo unspecified)
inactive: dose: 25.0 mg/kg/injection, schedule: Q01DX001 (ip), vehicle: saline + alcohol 99 % of control | dose: 50.0 mg/kg/injection, schedule: Q01DX001 (ip), vehicle: saline + alcohol 103 % of control | dose: 100.0 mg/kg/injection, schedule: Q01DX001 (ip), vehicle: saline + alcohol 100 % of control

OC1C(O)C(O)C(O)C(O)C1O (stereo unspecified)
inactive: [6] 97 % of control | [7] 96 % of control | [8] 100 % of control | dose: 400.0 mg/kg/injection, schedule: Q01DX009 (ip), vehicle: saline 96 % of control

Cc1c(Br)c(Br)nn1C(C)C(=O)N(C)C (stereo unspecified)
inactive: [3] 110 % of control | [4] 99 % of control | [5] 101 % of control

CC1CC2OC(=O)C(CN3CC3)C2CC2(C)C(O)CC(O)C12 (stereo unspecified)
inactive: dose: 25.0 mg/kg/injection, schedule: Q04DX002 (ip), vehicle: saline with Tween-80 108 % of control and 93 % of control | dose: 50.0 mg/kg/injection, schedule: Q04DX002 (ip), vehicle: saline with Tween-80 101 % of control and 113 % of control | dose: 100.0 mg/kg/injection, schedule: Q04DX002 (ip), vehicle: saline with Tween-80 102 % of control and 113 % of control

CCSC(C(OC(C)=O)C(OC(C)=O)C(COC(C)=O)OC(C)=O)n1cc(F)c(=O)[nH]c1=O (stereo unspecified)
inactive: dose: 25.0 mg/kg/injection, schedule: Q01DX005 (ip), vehicle: other 97 % of control | dose: 50.0 mg/kg/injection, schedule: Q01DX005 (ip), vehicle: other 110 % of control | dose: 100.0 mg/kg/injection, schedule: Q01DX005 (ip), vehicle: other 105 % of control | dose: 200.0 mg/kg/injection, schedule: Q01DX005 (ip), vehicle: other 107 % of control | dose: 400.0 mg/kg/injection, schedule: Q01DX005 (ip), vehicle: other 100 % of control | dose: 400.0 mg/kg/injection, schedule: Q01DX009 (ip), vehicle: other 92 % of control

Nc1nccc([N+](=O)[O-])n1
inactive: [6] 97 % of control | [7] 99 % of control | [8] 100 % of control

O=[N+]([O-])c1c(Cl)sc(Cl)c1[N+](=O)[O-]
inactive: dose: 1.56 mg/kg/injection, schedule: Q01DX009 (ip), vehicle: saline with Tween-80 105 % of control | dose: 3.12 mg/kg/injection, schedule: Q01DX009 (ip), vehicle: saline with Tween-80 104 % of control | dose: 6.25 mg/kg/injection, schedule: Q01DX009 (ip), vehicle: saline with Tween-80 87 % of control and 95 % of control | dose: 6.25 mg/kg/injection, schedule: Q04DX003 (ip), vehicle: saline sonified 110 % of control | dose: 12.5 mg/kg/injection, schedule: Q04DX003 (ip), vehicle: saline sonified 100 % of control | dose: 25.0 mg/kg/injection, schedule: Q04DX003 (ip), vehicle: saline sonified 100 % of control

O=C(CN1CCN(c2ccccc2)CC1)n1cnc2ccc([N+](=O)[O-])cc21
inactive: dose: 60.0 mg/kg/injection, schedule: Q01DX005 (ip), vehicle: saline with Tween-80 96 % of control | dose: 120.0 mg/kg/injection, schedule: Q01DX005 (ip), vehicle: saline with Tween-80 91 % of control

Cc1ccc(N2C(=O)CC3(CCCC3)C2=O)cc1Cl
inactive: [3] 104 % of control | [4] 108 % of control | [5] 105 % of control

O=C1N2CCSC2=NC1(c1ccccc1)c1ccccc1
inactive: dose: 25.0 mg/kg/injection, schedule: Q04DX003 (ip), vehicle: Klucel (hydroxypropylcellulose) (HPC) 100 % of control | dose: 50.0 mg/kg/injection, schedule: Q04DX003 (ip), vehicle: Klucel (hydroxypropylcellulose) (HPC) 100 % of control | dose: 100.0 mg/kg/injection, schedule: Q04DX003 (ip), vehicle: Klucel (hydroxypropylcellulose) (HPC) 93 % of control | dose: 200.0 mg/kg/injection, schedule: Q04DX003 (ip), vehicle: Klucel (hydroxypropylcellulose) (HPC) 102 % of control | dose: 400.0 mg/kg/injection, schedule: Q04DX003 (ip), vehicle: Klucel (hydroxypropylcellulose) (HPC) 100 % of control
